The results in this text go back to patent US11739101B2, “Bifunctional degraders of hematopoietic progenitor kinase and therapeutic uses thereof” (Nurix Therapeutics, Inc., priority 2020, dated 2023).

The target in this assay is T1, HPK1 (Homo sapiens, UniProt Q92918).
T1 construct: A HiBiT tag was introduced by CRISPR on the N terminus of HPK1 in Jurkat cells; host or cells: Jurkat (ATCC TIB-152), monoclonal CRISPR HiBiT knock-in line
T1 sequence (Q92918 whole entry): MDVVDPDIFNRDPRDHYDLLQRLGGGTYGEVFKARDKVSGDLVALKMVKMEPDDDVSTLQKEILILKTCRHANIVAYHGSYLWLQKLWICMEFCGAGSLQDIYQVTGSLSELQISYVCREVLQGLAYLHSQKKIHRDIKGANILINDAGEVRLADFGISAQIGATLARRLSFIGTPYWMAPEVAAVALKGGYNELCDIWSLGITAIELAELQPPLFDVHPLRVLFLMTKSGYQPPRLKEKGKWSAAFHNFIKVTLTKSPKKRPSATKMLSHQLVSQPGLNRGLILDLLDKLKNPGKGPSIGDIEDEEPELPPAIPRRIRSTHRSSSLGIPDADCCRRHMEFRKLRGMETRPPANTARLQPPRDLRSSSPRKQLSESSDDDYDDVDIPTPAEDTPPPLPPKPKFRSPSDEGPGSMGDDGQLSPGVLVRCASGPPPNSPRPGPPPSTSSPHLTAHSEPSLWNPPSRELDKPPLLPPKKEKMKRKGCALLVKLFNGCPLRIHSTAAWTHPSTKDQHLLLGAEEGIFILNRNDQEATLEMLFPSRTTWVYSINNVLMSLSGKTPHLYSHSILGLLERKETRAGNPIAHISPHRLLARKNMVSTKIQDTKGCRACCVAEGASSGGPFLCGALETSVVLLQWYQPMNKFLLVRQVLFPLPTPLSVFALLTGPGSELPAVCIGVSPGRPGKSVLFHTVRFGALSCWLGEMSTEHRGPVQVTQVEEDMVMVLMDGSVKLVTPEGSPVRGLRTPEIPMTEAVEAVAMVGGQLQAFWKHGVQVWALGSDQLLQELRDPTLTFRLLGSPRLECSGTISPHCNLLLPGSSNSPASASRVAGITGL
Description: HPK1 Cellular HiBiT Degradation Assay. The following applies: HiBiT-tagged HPK1 Jurkat cells, 24 hours, 10 uM to 0.1 nM; Dmax = 100 minus lowest % HPK1 remaining vs DMSO vehicle. Type of assay: cell-based. The procedure, abridged:
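Jurkat cells with CRISPR N-terminal HiBiT-tagged HPK1 were exposed to an 11-point 3.16-fold dilution series, 10 uM to 0.1 nM final, for 24 hours at 37° C./5% CO2. HPK1 was read by HiBiT lytic luminescence against DMSO as 100% and parental cells as background. Dmax is 100 minus the lowest % remaining from a four-parameter fit, with a parallel CellTiter-Glo viability check.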
For the molecule `Cc1cc(F)c(Nc2nc(-c3ccc4c(c3)N([C@H]3C[C@@H](N5CCCCC5)C3)C(=O)C43CCN(C(=O)[C@H]4CCN(C[C@H]5CC[C@H](Nc6cccc7c6C(=O)N(C6CCC(=O)NC6=O)C7=O)CC5)C4)CC3)cc3ncn(C(C)C)c23)cc1C(=O)NC(C)C` (stereo partly drawn) [Example 73, 4-fluoro-2-methyl-5-[(6-{2-oxo-1′-[(3R)-1-{[(1R,4R)-4-({2-[2,6-dioxopiperidin-3-yl]-1,3-dioxo-2,3-dihydro-1H-isoindol-4-yl}amino)cyclohexyl]methyl}pyrrolidine-3-carbonyl]-1-[(1s,3s)-3-(piperidin-1-yl)cyclobutyl]-1,2-dihydrospiro[indole-3,4′-piperidin]-6-yl}-3-(propan-2-yl)-3H-imidazo[4,5-c]pyridin-4-yl)amino]-N-(propan-2-yl)benzamide], the Dmax was over 65%.

`Cc1cc(F)c(Nc2nc(-c3ccc4c(c3)N([C@H]3C[C@@H](N5CCCCC5)C3)C(=O)C43CCN(C(=O)CCC4CCCN(CC(=O)NC(C(=O)N5C[C@H](O)C[C@H]5C(=O)N[C@@H](C)c5ccc(-c6scnc6C)cc5)C(C)(C)C)C4)CC3)cc3ncn(C(C)C)c23)cc1C(=O)NC(C)C` (stereo partly drawn) [Example 48, (2S,4R)-1-((2S)-2-(2-(3-(3-(6-(4-((2-fluoro-5-(isopropylcarbamoyl)-4-methylphenyl)amino)-3-isopropyl-3H-imidazo[4,5-c]pyridin-6-yl)-2-oxo-1-((1s,3s)-3-(piperidin-1-yl)cyclobutyl)spiro[indoline-3,4′-piperidin]-1′-yl)-3-oxopropyl)piperidin-1-yl)acetamido)-3,3-dimethylbutanoyl)-4-hydroxy-N—((S)-1-(4-(4-methylthiazol-5-yl)phenyl)ethyl)pyrrolidine-2-carboxamide] had a Dmax of 45 to 65%.

In the case of `Cc1cc(F)c(Nc2nc(-c3ccc4c(c3)N([C@H]3C[C@@H](N5CCCCC5)C3)C(=O)C43CCN(C(=O)C4CN(C(=O)C5CCN(c6ccc7c(c6)C(=O)N(C6CCC(=O)NC6=O)C7=O)CC5)C4)CC3)cc3ncn(C(C)C)c23)cc1C(=O)NC(C)C` (some centres unmarked) [Example 39, 5-[(6-{1′-[1-(1-{2-[2,6-dioxopiperidin-3-yl]-1,3-dioxo-2,3-dihydro-1H-isoindol-5-yl}piperidine-4-carbonyl)azetidine-3-carbonyl]-2-oxo-1-[(1s,3s)-3-(piperidin-1-yl)cyclobutyl]-1,2-dihydrospiro[indole-3,4′-piperidin]-6-yl}-3-(propan-2-yl)-3H-imidazo[4,5-c]pyridin-4-yl)amino]-4-fluoro-2-methyl-N-(propan-2-yl)benzamide], the Dmax is under 45%.

On to `Cc1cc(F)c(Nc2nc(-c3ccc4c(c3)N([C@H]3C[C@@H](N5CCCCC5)C3)C(=O)C43CCN(C(=O)CCCCCC(=O)N[C@H](C(=O)N4C[C@H](O)C[C@H]4C(=O)N[C@@H](C)c4ccc(-c5scnc5C)cc4)C(C)(C)C)CC3)cc3ncn(C(C)C)c23)cc1C(=O)NC(C)C` [Example 7, (2S,4R)-1-((S)-2-(7-(6-(4-((2-fluoro-5-(isopropylcarbamoyl)-4-methylphenyl)amino)-3-isopropyl-3H-imidazo[4,5-c]pyridin-6-yl)-2-oxo-1-((1s,3s)-3-(piperidin-1-yl)cyclobutyl)spiro[indoline-3,4′-piperidin]-1′-yl)-7-oxoheptanamido)-3,3-dimethylbutanoyl)-4-hydroxy-N—((S)-1-(4-(4-methylthiazol-5-yl)phenyl)ethyl)pyrrolidine-2-carboxamide], for which the maximal degradation (Dmax) is over 65%.

For the molecule `Cc1cc(F)c(Nc2nc(-c3ccc4c(c3)N([C@H]3C[C@@H](N5CCCCC5)C3)C(=O)C43CCN(C(=O)CCOCCOCCOCCOc4cc(-c5scnc5C)ccc4CNC(=O)[C@H]4C[C@H](O)CN4C(=O)[C@H](NC(=O)C4(F)CC4)C(C)(C)C)CC3)cc3ncn(C(C)C)c23)cc1C(=O)NC(C)C` [Example 9, (2S,4R)—N-(2-(2-(2-(2-(3-(6-(4-((2-fluoro-5-(isopropylcarbamoyl)-4-methylphenyl)amino)-3-isopropyl-3H-imidazo[4,5-c]pyridin-6-yl)-2-oxo-1-((1s,3s)-3-(piperidin-1-yl)cyclobutyl)spiro[indoline-3,4′-piperidin]-1′-yl)-3-oxopropoxy)ethoxy)ethoxy)ethoxy)-4-(4-methylthiazol-5-yl)benzyl)-1-((S)-2-(1-Fluorocyclopropane-1-carboxamido)-3,3-dimethylbutanoyl)-4-hydroxypyrrolidine-2-carboxamide], the maximal degradation (Dmax) is under 45%.

For `Cc1cc(F)c(Nc2nc(-c3ccc4c(c3)N([C@H]3C[C@@H](N5CCCCC5)C3)C(=O)C43CCN(C(=O)c4ccc(C(=O)N5CCN(c6ccc7c(c6)C(=O)N(C6CCC(=O)NC6=O)C7=O)CC5)cc4)CC3)cc3ncn(C(C)C)c23)cc1C(=O)NC(C)C` (some centres unmarked) [Example 78, 5-((6-(1′-(4-(4-(2-(2,6-dioxopiperidin-3-yl)-1,3-dioxoisoindolin-5-yl)piperazine-1-carbonyl)benzoyl)-2-oxo-1-((1s,3s)-3-(piperidin-1-yl)cyclobutyl)spiro[indoline-3,4′-piperidin]-6-yl)-3-isopropyl-3H-imidazo[4,5-c]pyridin-4-yl)amino)-4-fluoro-N-isopropyl-2-methylbenzamide], the Dmax is 45 to 65%.

`Cc1cc(F)c(Nc2nc(-c3ccc4c(c3)N([C@H]3C[C@@H](N5CCCCC5)C3)C(=O)C43CCN(C(=O)CCC4CCN(CC(=O)N[C@H](C(=O)N5C[C@H](O)C[C@H]5C(=O)N[C@@H](C)c5ccc(-c6scnc6C)cc5)C(C)(C)C)CC4)CC3)cc3ncn(C(C)C)c23)cc1C(=O)NC(C)C` [Example 14, (2S,4R)-1-((S)-2-(2-(4-(3-(6-(4-((2-fluoro-5-(isopropylcarbamoyl)-4-methylphenyl)amino)-3-isopropyl-3H-imidazo[4,5-c]pyridin-6-yl)-2-oxo-1-((1s,3s)-3-(piperidin-1-yl)cyclobutyl)spiro[indoline-3,4′-piperidin]-1′-yl)-3-oxopropyl)piperidin-1-yl)acetamido)-3,3-dimethylbutanoyl)-4-hydroxy-N—((S)-1-(4-(4-methylthiazol-5-yl)phenyl)ethyl)pyrrolidine-2-carboxamide]: the Dmax was in the range of 45 to 65%.

Take `Cc1cc(F)c(Nc2nc(-c3ccc4c(c3)N([C@H]3C[C@@H](N5CCCCC5)C3)C(=O)C43CCN(C(=O)CN4CCN(CCCc5cccc6c5C(=O)N(C5CCC(=O)NC5=O)C6=O)CC4)CC3)cc3ncn(C(C)C)c23)cc1C(=O)NC(C)C` (some centres unmarked) [Example 21, 5-{[6-(1′-{2-[4-(3-{2-[2,6-dioxopiperidin-3-yl]-1,3-dioxo-2,3-dihydro-1H-isoindol-4-yl}propyl)piperazin-1-yl]acetyl}-2-oxo-1-[(1s,3s)-3-(piperidin-1-yl)cyclobutyl]-1,2-dihydrospiro[indole-3,4′-piperidin]-6-yl)-3-(propan-2-yl)-3H-imidazo[4,5-c]pyridin-4-yl]amino}-4-fluoro-2-methyl-N-(propan-2-yl)benzamide]: the Dmax is under 45%.
